Data set [1] is described as follows: Comparison of PK parameters between visits (with vs without CBD) by mixed effects model ANOVA. The procedure:
(§1) This study was an open‐label, fixed sequence, 2‐way crossover study in 13 healthy participants. On Day 1, 25 mg amitriptyline and 50 mg tramadol were orally administered concurrently, followed by a wash‐out period of at least 7 days. On Day 8, 30 mg of oral CBD oil was administered 1 h prior to amitriptyline and tramadol. On Days 1 and 8, participants presented to the clinical research unit in the morning and were discharged in the evening, briefly returning in the morning of Days 2 and 9 for pharmacokinetic sampling.
To establish whether significant treatment effects could be detected, the PK parameters were compared with a mixed effects model analysis of variance (ANOVA) with treatment as a fixed factor and participants as a random factor on log‐transformed data. The general treatment effect and specific contrasts were reported with the estimated difference and the 95% confidence interval, the least square mean estimates and the p‐value. All calculations were performed using SAS for Windows V9.4 (SAS Institute, Inc., Cary, NC, USA).

The conditions of data set [2]: cited from earlier work; for mean (SD) AUC: previous trial.
Data set [3] in a line: Plasma pharmacokinetics (non-compartmental analysis) in open-label, fixed-sequence, 2-way crossover study in healthy participants. As to conditions: for AUClast, Geometric mean / AUClast, Mean / AUClast, Median / Clast, Geometric mean / Clast, Mean / Clast, Median / Cmax, Geometric mean / Cmax, Mean / Cmax, Median / tlag, Median / tmax, Median / AUC(0-t) / Cmax: fasted, plasma; for AUC(0-t) / Cmax: po; for AUC(0-t): AUClast. The procedure: as §1
The cannabidiol formulation used in this study was Clinican®, an almond oil‐based formulation containing 10% cannabidiol and manufactured by Clinical Cannabis Care (Breukelen, the Netherlands) and administered orally with 240 mL of water following an overnight fast. Single doses of 30 mg CBD were administered. […] Furthermore, we estimated that the 30 mg CBD dose is at the upper end of the range of CBD intake of patients who use CBD‐rich varieties of medicinal cannabis (or formulations containing THC and CBD, like Sativex®) for treatment of neuropathic pain symptoms,[23] and as well as an approximately median dose for OTC CBD users. Cannabidiol was administered one hour prior to amitriptyline and tramadol (during visit 2 only) to offset the slower absorption expected from an oil‐based cannabinoid formulation, compared to the victim drugs.
Generic oral formulations of tramadol (50 mg tramadol hydrochloride capsule) and amitriptyline (25 mg hydrochloride tablet) were used in this study. These doses were at the low end of the therapeutic range, allowing for a safety margin for possible increases in plasma concentrations when co‐administered with CBD. Tramadol and amitriptyline were not known to induce or inhibit CYP‐enzymes in general, and no specific pharmacokinetic interactions between the two victim drugs were known to the investigators. […] However, this risk was deemed clinically irrelevant when low, single doses were administered to healthy volunteers. Based on these consideration regarding pharmacokinetics and safety, the two victim drugs were administered together in a cocktail design.
Sampling for pharmacokinetics was performed pre‐dose and at 1, 2, 3, 4, 5, 6, 8, 12 and 24 h following the administration of amitriptyline and tramadol. Approximately 4 mL blood was collected via an i.v. catheter placed in an antecubital vein in the arm in polypropylene K2EDTA tubes. Following collection, samples were immediately cooled on ice. Within 30 min of collection, plasma was separated by centrifugation at approximately 2000 g for 10 min and promptly transferred into amber glass vials and stored at […]. The samples were analysed by the iC42 Laboratory (Department of Anesthesiology, University of Colorado, Aurora, Colorado, USA). CBD and CBD metabolites were analysed using a validated assay that was previously published (CBD metabolite concentrations not reported in this manuscript).[33] Concentrations of amitriptyline, nortriptyline, tramadol and O‐desmethyltramadol were determined using a validated assay that was based on a previously published high‐performance liquid chromatography tandem mass spectrometry (HPLC‐MS/MS) method.[34] Details regarding the bioanalytical assays used to measure CBD, amitriptyline, nortriptyline, tramadol and O‐desmethyltramadol are located in the Supplementary Materials section.
R 3.6.1 for Windows (R Foundation for Statistical Computing/R development Core Team, Vienna, Austria, 2019), PKNCA package version 0.9.5, was used to calculate pharmacokinetic parameters. PK parameter calculations were based on actual sampling time.

For data set [4] the following is noted: cited from earlier work.
The mark [5] stands for this setting: Visit 1: without CBD, mixed effects model on log-transformed data.
[6] abbreviates: Visit 2 (with 30 mg CBD) vs Visit 1 (without CBD).
[7] abbreviates: Visit 2: with 30 mg CBD, mixed effects model on log-transformed data.
[8] abbreviates: Visit 1 (Day 1), no CBD, based on AUClast, corrected for molecular weight ratio, N=13.
Where [9] appears, read: Visit 1 (Day 1): 25 mg amitriptyline + 50 mg tramadol oral, no CBD, N=13.
[10] abbreviates: Visit 2 (Day 8), 30 mg CBD 1 h prior, based on AUClast, corrected for molecular weight ratio, N=12.
Setting [11] is: Visit 2 (Day 8): 30 mg CBD oral 1 h prior to 25 mg amitriptyline + 50 mg tramadol, N=12.
[12] abbreviates: human, in vivo, Geometric mean, Visit 2 (Day 8): 30 mg CBD oral 1 h prior to 25 mg amitriptyline + 50 mg tramadol, N=12.
[13] abbreviates: human, in vivo, Mean, Visit 2 (Day 8): 30 mg CBD oral 1 h prior to 25 mg amitriptyline + 50 mg tramadol, N=12.
Setting [14] is: human, in vivo, Median, Visit 2 (Day 8): 30 mg CBD oral 1 h prior to 25 mg amitriptyline + 50 mg tramadol, N=12.

Like-named read-outs stand apart in the source and are kept apart here.

Data on five compounds can be found in PMC13206195, “Low‐dose cannabidiol increases plasma concentrations of amitriptyline: A clinical drug–drug interaction study” (British Journal of Clinical Pharmacology, 2025).

As for `CN(C)C[C@H]1CCCC[C@]1(O)c1cccc(O)c1` [O‐desmethyltramadol], the “MPR, back transformed LSM Visit 1” value in data set [1] (Visit 1: without CBD, metabolite to parent ratio) turned out to be 0.37. Also, in data set [1] (setting [5]), the “AUClast, back transformed LSM Visit 1” value was 400.41 and the “Clast, back transformed LSM Visit 1” value turned out to be 4.43. Moreover, the “Cmax, back transformed LSM Visit 1” value in data set [1] (Visit 1: without CBD, mixed effects model on log-transformed data, in ng/mL) stood at 34.99. In data set [1] (setting [6]), the “AUClast, Ratio of LSMs” value was 0.99; the “Clast, Ratio of LSMs” value is given as 0.91; the “Cmax, Ratio of LSMs” value amounted to 1.05; the “MPR, Ratio of LSMs” value stood at 0.95. For the same compound, in data set [1] (Visit 2: with 30 mg CBD, metabolite to parent ratio), the “MPR, back transformed LSM Visit 2” value is listed as 0.36. Also, in data set [1] (setting [7]), the “AUClast, back transformed LSM Visit 2” value stood at 396.86 and the “Clast, back transformed LSM Visit 2” value was 4.04. In addition, the “Cmax, back transformed LSM Visit 2” value in data set [1] (Visit 2: with 30 mg CBD, mixed effects model on log-transformed data, in ng/mL) amounted to 36.84. In data set [2], the “terminal half‐life” value is recorded as ~ 7 h. In data set [2] (25 participants dosed with 100 mg tramadol), the “mean (SD) AUC” value is given as 669 (181) ng*h/mL. For the same compound, in data set [3] (setting [8]), the “MPR (metabolite to parent ratio), Geometric mean” value amounted to 0.37; the “MPR (metabolite to parent ratio), Mean” value worked out at 0.40; the “MPR (metabolite to parent ratio), Median” value amounted to 0.33. Also, in data set [3] (setting [9]), the “AUClast, Geometric mean” value was 400.4 ng·h/mL; the “AUClast, Mean” value worked out at 412.0 ng·h/mL; the “AUClast, Median” value was determined as 388.6 ng·h/mL; the “Clast, Geometric mean” value is listed as 4.4 ng/mL. Also, in data set [3] (setting [9]), the “Clast, Mean” value stood at 4.8 ng/mL; the “Clast, Median” value stood at 4.1 ng/mL; the “Cmax, Geometric mean” value stood at 35.0 ng/mL; the “Cmax, Mean” value was 36.7 ng/mL. Further, in data set [3] (setting [9]), the “Cmax, Median” value is 31.1 ng/mL; the “tlag, Median” value worked out at 0.0 h; the “tmax, Median” value was 3.0 h. In addition, in data set [3] (setting [10]), the “MPR (metabolite to parent ratio), Geometric mean” value amounted to 0.37; the “MPR (metabolite to parent ratio), Mean” value is 0.39; the “MPR (metabolite to parent ratio), Median” value is recorded as 0.32. Also, in data set [3] (setting [11]), the “AUClast, Geometric mean” value worked out at 399.5 ng·h/mL; the “AUClast, Mean” value amounted to 411.1 ng·h/mL; the “AUClast, Median” value was 396.1 ng·h/mL; the “Clast, Geometric mean” value was determined as 4.0 ng/mL. Besides, in data set [3] (setting [11]), the “Clast, Mean” value was 4.4 ng/mL; the “Clast, Median” value was 3.9 ng/mL; the “Cmax, Geometric mean” value came out at 37.6 ng/mL; the “Cmax, Mean” value was 39.5 ng/mL. In addition, in data set [3] (setting [11]), the “Cmax, Median” value turned out to be 33.6 ng/mL; the “tlag, Median” value is reported as 0.0 h; the “tmax, Median” value amounted to 2.5 h.
Turning to `CNCCC=C1c2ccccc2CCc2ccccc21` [Nortriptyline], in data set [1] (human, in vivo), the AUC(0-t) came to 75.3 ng·h/mL; the “Clast, back transformed LSM Visit 1” value worked out at 3.30; the highest concentration (Cmax) turned out to be 4.36 ng/mL. Besides, in data set [1] (human, in vivo, 30 mg), the AUC(0-t) turned out to be 79.5 ng·h/mL and the Cmax turned out to be 4.51 ng/mL. For the same compound, the “terminal half‐life” value in data set [2] is ~ 26 h. Moreover, in data set [3] (human, in vivo), the “MPR (metabolite to parent ratio), Geometric mean” value was found to be 0.57; the “MPR (metabolite to parent ratio), Mean” value was 0.62; the “MPR (metabolite to parent ratio), Median” value came out at 0.60.
Take `C=C(C)[C@@H]1CCC(C)=C[C@H]1c1c(O)cc(CCCCC)cc1O` [Cannabidiol]: the “mean±SD Cmax” value in data set [4] (previous study, 30 mg CBD tablet formulation after semi-standardized light breakfast) is 5.6 ± 4.6 ng/mL. Besides, the “terminal half‐life” value in data set [2] is given as ~ 60 h. In data set [3] (setting [11]), the “Clast, Geometric mean” value is given as 1.0 ng/mL; the “Clast, Mean” value is recorded as 1.1 ng/mL; the “Clast, Median” value is reported as 1.1 ng/mL; the “tlag, Median” value amounted to 0.0 h. For the same compound, the “tmax, Median” value in data set [3] (setting [11]) is recorded as 2.0 h. Besides, in data set [3] (setting [12]), the AUC(0-t) is 5.3 ng·h/mL and the highest concentration (Cmax) worked out at 2.9 ng/mL. Besides, in data set [3] (setting [13]), the AUC(0-t) amounted to 6.9 ng·h/mL and the maximum concentration (Cmax) worked out at 3.5 ng/mL. Further, in data set [3] (setting [14]), the area under the curve AUC(0-t) stood at 6.2 ng·h/mL and the maximum concentration (Cmax) is 3 ng/mL.
As to `CN(C)CCC=C1c2ccccc2CCc2ccccc21` [Amitriptyline], in data set [1] (human, in vivo), the area under the curve AUC(0-t) came to 139 ng·h/mL; the “Clast, back transformed LSM Visit 1” value was found to be 3.40; the peak level (Cmax) was 12.3 ng/mL. Moreover, in data set [1] (human, in vivo, 30 mg), the AUC(0-t) amounted to 156 ng·h/mL and the Cmax worked out at 14.5 ng/mL. Besides, the “terminal half‐life” value in data set [2] is given as ~ 25 h. Also, the “mean (SD) AUC” value in data set [2] (28 participants dosed with 10 mg of amitriptyline) is on record as 156 (87.8) ng*h/mL. This compound gave a baseline amitriptyline concentration in data set [3] (human, in vivo) of 0.85 ng/mL.
Turning to 11‐OH‐THC, in data set [4] (30 mg CBD administered 30 min before THC), the “increase of mean AUC by 30 mg CBD” value is given as 71%.

As a reminder, the AUC(0-t) is exposure summed from dosing to a finite time, without extrapolation to infinity. Usually Cmax stands for the maximum level reached in the sampled fluid or tissue.
